Experimental data published in ChEMBL document CHEMBL5518191, “Camptothecin structure simplification elaborated new imidazo[2,1-b]quinazoline derivative as a human topoisomerase I inhibitor with efficacy against bone cancer cells and colon adenocarcinoma” (Eur J Med Chem, 2024).
One block for each compound: values may come before it. Active and inactive are the calls of the source. The calls are words filed in the database; no cut-off is given here.

Key:
[1] = test system: PC-3; test: Cytotoxicity against human PC-3 cells incubated for 48 hrs by MTT assay; type: functional, cell-based; settings: PC-3, 48 h
[2] = test system: HOS; test: Cytotoxicity against human HOS cells incubated for 48 hrs by MTT assay; type: functional, cell-based
[3] = test system: MDA-MB-231; test: Cytotoxicity against human MDA-MB-231 cells incubated for 48 hrs by MTT assay; type: functional, cell-based; settings: MDA-MB-231, 48 h
[4] = biological target: T1, DNA topoisomerase 1 (Homo sapiens) (UniProt P11387); test: Inhibition of human DNA topoisomerase 1 at 10 uM using supercoiled DNA as substrate incubated for 30 mins by EtBr staining based agarose gel electrophoresis method relative to control
T1 sequence (whole entry): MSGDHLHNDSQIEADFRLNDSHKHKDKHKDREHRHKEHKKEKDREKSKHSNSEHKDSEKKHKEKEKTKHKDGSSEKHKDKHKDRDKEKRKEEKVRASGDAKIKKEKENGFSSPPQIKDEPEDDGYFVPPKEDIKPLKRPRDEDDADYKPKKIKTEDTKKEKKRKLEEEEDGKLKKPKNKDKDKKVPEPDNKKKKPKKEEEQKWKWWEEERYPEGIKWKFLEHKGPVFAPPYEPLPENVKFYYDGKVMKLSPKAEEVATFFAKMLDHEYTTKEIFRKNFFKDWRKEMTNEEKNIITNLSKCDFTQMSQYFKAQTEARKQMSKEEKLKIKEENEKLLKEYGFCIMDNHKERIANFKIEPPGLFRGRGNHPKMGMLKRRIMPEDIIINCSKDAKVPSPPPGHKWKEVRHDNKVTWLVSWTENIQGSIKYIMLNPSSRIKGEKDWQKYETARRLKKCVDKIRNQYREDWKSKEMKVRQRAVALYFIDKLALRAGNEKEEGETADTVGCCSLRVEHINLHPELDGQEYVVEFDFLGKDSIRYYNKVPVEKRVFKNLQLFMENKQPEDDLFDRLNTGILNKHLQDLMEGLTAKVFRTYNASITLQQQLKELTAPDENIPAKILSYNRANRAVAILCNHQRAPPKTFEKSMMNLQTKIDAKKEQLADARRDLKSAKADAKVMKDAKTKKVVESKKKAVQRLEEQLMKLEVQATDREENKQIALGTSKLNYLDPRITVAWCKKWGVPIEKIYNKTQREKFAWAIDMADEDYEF

[5] = test system: MCF7; test: Cytotoxicity against human MCF7 cells incubated for 48 hrs by MTT assay; type: functional, cell-based; settings: MCF7, 48 h
[6] = Cytotoxicity against human BJ cells incubated for 48 hrs by MTT assay; type: toxicity, cell-based
[7] = test system: DU-145; test: Cytotoxicity against human DU-145 cells incubated for 48 hrs by MTT assay; type: functional, cell-based; settings: DU-145, 48 h
[8] = test system: SAOS-2; test: Cytotoxicity against human SAOS-2 cells incubated for 48 hrs by MTT assay; type: functional, cell-based; settings: SAOS-2, 48 h
[9] = test system: HOS; test: Induction of apoptosis in human HOS cells assessed as fold increase in p53 gene expression at 1.47 uM incubated for 48 hrs by RT-qPCR analysis relative to positive control; type: functional
[10] = Acute toxicity in Swiss albino mouse assessed as change in ALT level at 1.47 uM/kg, po administered for 14 days; type: organism-based; settings: in vivo, 336 h, time 14 day
[11] = test system: HCT-116; test: Cytotoxicity against human HCT-116 cells incubated for 48 hrs by MTT assay; type: functional, cell-based; settings: HCT-116, 48 h
[12] = Acute toxicity in Swiss albino mouse assessed as change in GGT level at 1.47 uM/kg, po administered for 14 days; type: organism-based; settings: in vivo, 336 h, time 14 day
[13] = test system: C-26; test: Antitumor activity against mouse C26 cells xenografted in BALB/c mouse assessed as decrease in tumor volume at 250 mg/kg, po after 35 days; type: functional, organism-based; settings: time 35.0 day
[14] = test system: HOS; test: Induction of apoptosis in human HOS cells assessed as necrotic cells at 5 uM incubated for 48 hrs by Annexin-V FITC/PI staining based flow cytometry analysis (reference value: 1.51%); type: functional
[15] = test system: HOS; test: Induction of apoptosis in human HOS cells assessed as fold increase in BAX gene expression at 1.47 uM incubated for 48 hrs by RT-qPCR analysis relative to positive control; type: functional
[16] = test system: PANC-1; test: Cytotoxicity against human PANC-1 cells incubated for 48 hrs by MTT assay; type: functional, cell-based; settings: PANC-1, 48 h
[17] = Selectivity ratio of IC50 for human BJ cells to IC50 for human HOS cells
[18] = test system: HOS; test: Induction of cell cycle arrest in human HOS cells assessed as accumulation of cells at S phase after 48 hrs by flow cytometry analysis (reference value: 32.75 %); type: functional
[19] = test system: HOS; test: Induction of cell cycle arrest in human HOS cells assessed as accumulation of cells at G0/G1 phase after 48 hrs by flow cytometry analysis (reference value: 52.39 %); type: functional
[20] = Acute toxicity in Swiss albino mouse assessed as change in AST level at 1.47 uM/kg, po administered for 14 days; type: organism-based; settings: in vivo, 336 h, time 14 day
[21] = test system: HOS; test: Induction of apoptosis in human HOS cells assessed as fold decrease in BCL-2 gene expression at 1.47 uM incubated for 48 hrs by RT-qPCR analysis relative to positive control; type: functional
[22] = test system: HOS; test: Cytotoxicity against human HOS cells cultured as 3D spheroids incubated for 120 hrs; type: functional, cell-based
[23] = test system: HOS; test: Induction of cell cycle arrest in human HOS cells assessed as accumulation of cells at pre-G1 phase after 48 hrs by flow cytometry analysis (reference value: 2.18 %); type: functional
[24] = Antitumor activity against mouse C26 cells xenografted in BALB/c mouse assessed as decrease in tumor volume at 250 mg/kg, po after 1 week; type: functional, C-26; parameters: scale not given: the % may be the effect or the level left; settings: time 1 weeks
[25] = test system: MG-63; test: Cytotoxicity against human MG-63 cells incubated for 48 hrs by MTT assay; type: functional, cell-based
[26] = test system: HOS; test: Induction of cell cycle arrest in human HOS cells assessed as accumulation of cells at G2/M phase after 48 hrs by flow cytometry analysis (reference value: 14.86 %); type: functional
[27] = test system: SK-OV-3; test: Cytotoxicity against human SK-OV-3 cells incubated for 48 hrs by MTT assay; type: functional, cell-based; settings: SK-OV-3, 48 h
[28] = Antitumor activity against mouse C26 cells xenografted in BALB/c mouse assessed as decrease in tumor volume at 250 mg/kg, po after 5 weeks; type: functional, C-26; parameters: scale not given: the % may be the effect or the level left
[29] = test system: HOS; test: Induction of apoptosis in human HOS cells assessed as early apoptotic cells at 5 uM incubated for 48 hrs by Annexin-V FITC/PI staining based flow cytometry analysis (reference value: 0.46%); type: functional
[30] = test system: HOS; test: Induction of apoptosis in human HOS cells assessed as late apoptotic cells at 5 uM incubated for 48 hrs by Annexin-V FITC/PI staining based flow cytometry analysis (reference value: 0.21%); type: functional
[31] = test system: HOS; test: Induction of apoptosis in human HOS cells assessed as fold decrease in Her2 gene expression at 1.47 uM incubated for 48 hrs by RT-qPCR analysis relative to positive control; type: functional
[32] = Acute toxicity in Swiss albino mouse assessed as change in GGT level at 200 mg/kg, po administered for 14 days; type: organism-based; settings: in vivo, 336 h, time 14 day
[33] = Acute toxicity in Swiss albino mouse assessed as change in ALT level at 200 mg/kg, po administered for 14 days; type: organism-based; settings: in vivo, 336 h, time 14 day
[34] = Acute toxicity in Swiss albino mouse assessed as change in AST level at 200 mg/kg, po administered for 14 days; type: organism-based; settings: in vivo, 336 h, time 14 day
[35] = Homo sapiens, MG-63, 48 h, read-out: IC50

inhibition [4]: Active
SMILES: O=C1c2cc3ccccc3c(=O)n2C(=S)N1c1ccccc1
IC50 [1]: > 100 µM
IC50 [2]: > 100 µM
IC50 [3]: > 100 µM
IC50 [5]: > 100 µM

inhibition [4]: Active
SMILES: O=c1c2ccccc2nc2n1c(=O)c1cc3ccccc3c(=O)n12
IC50 [1]: > 100 µM
IC50 [2]: > 100 µM
IC50 [3]: 70.7 µM
IC50 at 48 h [6]: 128 µM
IC50 [5]: > 100 µM

inhibition [4]: Active
SMILES: O=C1NC(=S)n2c1cc1ccccc1c2=O
IC50 [1]: > 100 µM
IC50 [2]: > 100 µM
IC50 [3]: > 100 µM
IC50 at 48 h [6]: 258 µM
IC50 [5]: 12.6 µM

inhibition [4]: Active
SMILES: O=c1/c(=C\c2ccccc2)n2c(=O)c3ccccc3nc2n1CCN1CCOCC1
IC50 [7]: 3.81 µM
IC50 [8]: 3.2 µM
fold change (FC) [9]: 4.907
Activity [10]: 22 U/L
IC50 [11]: 3.67 µM
Activity [12]: 10.3 U/L
Activity [13]: Active
Activity [14]: 12.81%
IC50 [1]: > 100 µM
fold change (FC) [15]: 6.143
IC50 [16]: 19.1 µM
IC50 [2]: 1.47 µM
Ratio IC50 [17]: 2.89
IC50 [3]: 5.96 µM
Activity [18]: 27.51%
Activity [19]: 61.08%
Activity [20]: 19.5 U/L
fold change (FC) [21]: 0.146
Activity [22]: Active
Activity [23]: 39.61%
IC50 at 48 h [6]: 4.25 µM
Activity [24]: 35.5%
IC50 [25, 35]: 17.9 µM
Activity [26]: 11.41%
IC50 [27]: 3.48 µM
Activity [28]: 75.36%
Activity [29]: 3.22%
IC50 [5]: 56.4 µM
Activity [30]: 23.58%
fold change (FC) [31]: 0.237

SMILES: COc1cccc2c1C(=O)c1c(O)c3c(c(O)c1C2=O)C[C@@](O)(C(=O)CO)C[C@@H]3O[C@H]1C[C@H](N)[C@H](O)[C@H](C)O1 [DOXORUBICIN]
IC50 [7]: 0.072 µM
IC50 [8]: 0.144 µM
Activity [32]: 13.7 U/L
IC50 [1]: 0.567 µM
IC50 [16]: 0.086 µM
IC50 [2]: 0.03 µM
IC50 [3]: 1.15 µM
Activity [33]: 60 U/L
IC50 ([25]; mg-63): Not Active
IC50 [27]: 0.033 µM
Activity [34]: 31 U/L
IC50 [5]: 0.01 µM

inhibition [4]: Active
SMILES: COc1cc2nc3n(c(=O)c2cc1OC)c(=O)c1cc2ccccc2c(=O)n13
IC50 [1]: > 100 µM
IC50 [2]: > 100 µM
IC50 [3]: > 100 µM
IC50 [5]: > 100 µM

SMILES: CC[C@@]1(O)C(=O)OCc2c1cc1n(c2=O)Cc2cc3ccccc3nc2-1 [CAMPTOTHECIN]
IC50 [7]: 0.042 µM
IC50 [8]: 0.055 µM
IC50 [11]: 0.051 µM
IC50 [1]: 0.234 µM
IC50 [16]: 0.233 µM
IC50 [2]: 0.049 µM
IC50 [3]: 0.108 µM
IC50 [25, 35]: 0.046 µM
IC50 [27]: 0.241 µM
IC50 [5]: 0.324 µM
